Key:
Type in all cases: biochemical
KDAC8 = target: T1, KDAC8 (Homo sapiens, UniProt Q9BY41); experiment: KDAC inhibition assay, KDAC8; settings: mean of three technical replicates
T1 sequence (Q9BY41 1-377): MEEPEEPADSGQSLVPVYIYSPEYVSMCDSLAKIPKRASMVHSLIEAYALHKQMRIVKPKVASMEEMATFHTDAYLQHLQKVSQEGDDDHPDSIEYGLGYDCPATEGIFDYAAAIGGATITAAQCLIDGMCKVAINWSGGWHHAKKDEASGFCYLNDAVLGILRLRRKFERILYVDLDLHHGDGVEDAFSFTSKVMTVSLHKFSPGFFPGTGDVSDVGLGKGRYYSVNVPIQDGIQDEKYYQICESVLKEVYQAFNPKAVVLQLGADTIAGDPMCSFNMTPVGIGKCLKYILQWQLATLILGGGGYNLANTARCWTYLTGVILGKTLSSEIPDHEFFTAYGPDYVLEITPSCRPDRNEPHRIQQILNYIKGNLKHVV
Protocol: (§1) KDAC1, 2, 3 6, and 8 inhibition assays were performed as described previously.[52] Briefly, the relevant human recombinant KDAC was diluted in an assay buffer with the following composition: 150 mM NaCl, 25 mM Tris–HCl (pH 8.0), 2.7 mM KCl, and 1 mM MgCl2; BSA (0.1 mg/mL) was also added in the case of KDAC1. Forty microliters of this solution were added to 10 μL of each inhibitor ([…]) and 50 μL of KDAC Assay substrate (Boc-Lys-(Ac)-AMC, 7–100 μM final concentration, depending on the KDAC isoform), and the resulting solution was mixed. […] After thorough mixing of the resulting solution, the plate was covered and incubated at 37 °C for 25 min and the fluorescence (λemission = 460 nm; λexcitation = 390 nm) was measured on a EnSight Multimode Plate Reader (Perkin Elmer). The shown values are average of three technical replicates ± SD.

KAT8 = target: T2, KAT8 (Homo sapiens, UniProt Q9H7Z6); experiment: Radioactive KAT8 inhibition assay; settings: read-out: IC50 KAT8 (5 nM); enzyme 5 nM; 2-fold serial dilution from 200 μM; NI = no inhibition at 200 μM; mean ± SD of three independent experiments
T2 construct: using the previously purified KAT8 (173–458, 5 nM); 6xHis tag with TEV protease cleavage site (N, cleaved yes); made in house; host or cells: E. coli BL21(DE3)
T2 sequence (Q9H7Z6 173-458): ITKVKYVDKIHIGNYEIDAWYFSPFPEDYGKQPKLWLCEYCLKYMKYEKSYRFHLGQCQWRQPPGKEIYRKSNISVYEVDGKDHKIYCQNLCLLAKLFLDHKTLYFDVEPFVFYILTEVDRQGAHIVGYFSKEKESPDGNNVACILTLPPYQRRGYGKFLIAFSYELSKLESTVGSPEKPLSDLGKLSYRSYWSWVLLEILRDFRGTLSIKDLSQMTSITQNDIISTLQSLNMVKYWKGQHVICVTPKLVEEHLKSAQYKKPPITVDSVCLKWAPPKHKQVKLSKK
How it was run: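 Purified KAT8 preincubated 20 min at rt with inhibitor (2-fold dilutions from 200 μM, 1% DMSO), then [3H]Ac-CoA and biotinylated peptide added for 4 h at rt. Product captured on streptavidin scintillant plates and counted. IC50 by nonlinear regression of % inhibition, biological triplicates.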

KAT5 = target: T3, KAT5 (Homo sapiens, UniProt Q92993); experiment: HotSpot KAT assay, KAT5; settings: for inhibition at 200 µM: read-out: % inhibition at 200 μM KAT5 (25 nM), NI = no inhibition
T3 construct: full length human KAT5 (25 nM) and KAT7 (25 nM) were used; purchased Reaction Biology Corporation
T3 sequence (Q92993 whole entry): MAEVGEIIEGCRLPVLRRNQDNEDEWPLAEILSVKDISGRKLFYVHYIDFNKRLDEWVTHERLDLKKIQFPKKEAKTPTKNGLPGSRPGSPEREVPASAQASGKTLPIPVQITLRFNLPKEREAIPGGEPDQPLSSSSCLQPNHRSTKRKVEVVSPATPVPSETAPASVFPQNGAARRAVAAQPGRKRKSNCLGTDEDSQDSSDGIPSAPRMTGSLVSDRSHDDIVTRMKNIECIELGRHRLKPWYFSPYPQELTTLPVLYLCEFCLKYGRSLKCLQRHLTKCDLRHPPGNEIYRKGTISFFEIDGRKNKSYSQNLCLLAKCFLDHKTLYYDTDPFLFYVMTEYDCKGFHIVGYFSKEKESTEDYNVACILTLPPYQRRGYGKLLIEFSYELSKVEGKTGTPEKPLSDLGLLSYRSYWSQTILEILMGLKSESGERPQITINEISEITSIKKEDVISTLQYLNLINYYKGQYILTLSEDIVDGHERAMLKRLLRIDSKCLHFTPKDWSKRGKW
Protocol: (§2) The effects of the compounds on other KATs were determined using the HotSpot KAT assay (Reaction Biology Corporation, Malvern, PA, USA) according to the supplier’s procedure. The recombinant catalytic domains of human KAT2A (aa 323–837, 15 nM), KAT2B (aa 492–658, 25 nM), KAT3B (aa 1284–1672, 1 nM), KAT6A (aa 488–778, 10 nM), KAT6B (aa 657–1069, 10 nM), and full length human KAT5 (25 nM) and KAT7 (25 nM) were used. Each enzyme was incubated with the relevant histone peptide [H3 peptide for KAT2A, KAT2B, KAT3B, KAT6A, and KAT7 (2.5–5 μM, depending on the KAT isoform); H2A peptide for KAT5 (1.25 μM); H4 peptide for KAT6B (2.5 μM)] as a substrate and radio-isotope-labeled [^3H]Acetyl-CoA (0.2–1.5 μM, depending on the KAT isoform) as an acetyl donor in the assay buffer [50 mM Tris–HCl (pH 8.0), 50 mM NaCl, 0.1 mM EDTA, 1 mM DTT, 0.1 mM PMSF, 1% DMSO] for 1 h at 30 °C in the presence or absence of various compounds (1% DMSO final) titrated in a 2-fold serial dilution starting at 200 μM. Histone peptide acetylation was assessed by liquid scintillation counting using a Tri-Carb 2800TR Liquid Scintillation Analyzer (Perkin Elmer). Experiments were performed in biological triplicates. Signal reduction compared to control was plotted (as inhibition percentage) as a function of compound concentration. In cases in which an IC50 was calculated, the values were fitted by nonlinear regression (GraphPad Prism 8.0).

KAT6A = target: T4, KAT6A (Homo sapiens, UniProt Q92794); experiment: HotSpot KAT assay, KAT6A; settings: for inhibition at 200 µM: read-out: % inhibition at 200 μM KAT6A (10 nM), NI = no inhibition
T4 construct: KAT6A (aa 488–778, 10 nM); purchased Reaction Biology Corporation
T4 sequence (Q92794 488-778): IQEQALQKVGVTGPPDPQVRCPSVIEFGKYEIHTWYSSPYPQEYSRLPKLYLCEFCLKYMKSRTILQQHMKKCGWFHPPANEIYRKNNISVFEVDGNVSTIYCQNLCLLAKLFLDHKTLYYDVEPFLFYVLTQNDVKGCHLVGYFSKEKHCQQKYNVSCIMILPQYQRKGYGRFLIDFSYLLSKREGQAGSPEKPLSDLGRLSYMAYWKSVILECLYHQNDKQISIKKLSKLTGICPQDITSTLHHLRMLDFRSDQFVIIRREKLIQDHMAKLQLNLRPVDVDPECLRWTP
Protocol: as §2

KDAC3 = KDAC3 (Homo sapiens, UniProt O15379); experiment: KDAC inhibition assay, KDAC3; settings: mean of three technical replicates
KDAC3, sequence (O15379 whole entry): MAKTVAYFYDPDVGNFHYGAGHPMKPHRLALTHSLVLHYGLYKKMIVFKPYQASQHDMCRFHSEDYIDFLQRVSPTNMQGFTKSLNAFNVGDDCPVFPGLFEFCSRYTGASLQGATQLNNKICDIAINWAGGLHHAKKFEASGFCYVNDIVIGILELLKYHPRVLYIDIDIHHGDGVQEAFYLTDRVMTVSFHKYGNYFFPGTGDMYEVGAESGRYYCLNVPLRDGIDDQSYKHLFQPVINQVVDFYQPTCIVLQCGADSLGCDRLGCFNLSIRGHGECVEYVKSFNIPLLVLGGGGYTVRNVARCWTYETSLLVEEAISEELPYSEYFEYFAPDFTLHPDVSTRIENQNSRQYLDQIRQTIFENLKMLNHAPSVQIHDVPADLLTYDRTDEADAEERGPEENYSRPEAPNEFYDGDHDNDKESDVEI
KDAC3, sequence (Q9Y618 395-489 partner limits assumed): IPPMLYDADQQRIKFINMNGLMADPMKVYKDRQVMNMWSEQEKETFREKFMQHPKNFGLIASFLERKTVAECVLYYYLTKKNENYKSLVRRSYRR
Protocol: as §1

KAT2B = target: T5, KAT2B (Homo sapiens, UniProt Q92831); experiment: HotSpot KAT assay, KAT2B; settings: enzyme 25 nM; NI = no inhibition at 200 μM; mean ± SD of three independent experiments
T5 construct: KAT2B (aa 492–658, 25 nM); purchased Reaction Biology Corporation
T5 sequence (Q92831 492-658): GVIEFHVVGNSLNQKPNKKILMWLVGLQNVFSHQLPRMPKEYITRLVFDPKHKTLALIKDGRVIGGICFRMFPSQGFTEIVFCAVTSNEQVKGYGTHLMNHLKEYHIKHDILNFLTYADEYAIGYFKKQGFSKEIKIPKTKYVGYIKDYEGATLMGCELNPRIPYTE
How it was run: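 Radiometric assay: recombinant human catalytic domains (KAT2B aa 492–658, 25 nM; KAT6A aa 488–778, 10 nM; KAT6B aa 657–1069, 10 nM) or full-length KAT7 (25 nM), with H3 peptide (H4 for KAT6B, 2.5 μM) and [3H]acetyl-CoA, pH 8.0, 1 h, 30 °C. Compounds 2-fold from 200 μM; scintillation counting, triplicates, IC50 by nonlinear regression.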

KAT6B = target: T6, KAT6B (Homo sapiens, UniProt Q8WYB5); experiment: HotSpot KAT assay, KAT6B; settings: for inhibition at 200 µM: read-out: % inhibition at 200 μM KAT6B (10 nM), NI = no inhibition
T6 construct: KAT6B (aa 657–1069, 10 nM); purchased Reaction Biology Corporation
T6 sequence (Q8WYB5 657-1069): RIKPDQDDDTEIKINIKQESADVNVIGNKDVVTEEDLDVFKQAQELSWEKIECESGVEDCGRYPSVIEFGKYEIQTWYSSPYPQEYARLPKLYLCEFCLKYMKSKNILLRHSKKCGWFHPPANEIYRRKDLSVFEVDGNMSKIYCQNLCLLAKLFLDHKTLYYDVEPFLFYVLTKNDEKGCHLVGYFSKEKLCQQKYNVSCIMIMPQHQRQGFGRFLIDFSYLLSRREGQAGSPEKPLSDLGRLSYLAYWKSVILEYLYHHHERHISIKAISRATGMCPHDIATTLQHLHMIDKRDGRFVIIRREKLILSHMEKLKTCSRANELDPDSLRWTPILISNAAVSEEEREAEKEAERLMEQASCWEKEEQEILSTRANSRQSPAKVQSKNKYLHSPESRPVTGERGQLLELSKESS
Protocol: as §2

| inhibition at 50 µM (KDAC8) [%] | inhibition at 100 µM (KDAC8) [%] | IC50 (KAT8) [µM] | inhibition at 200 µM (KAT5) [%] | inhibition at 200 µM (KAT6A) [%] | inhibition at 50 µM (KDAC3) [%] | inhibition at 100 µM (KDAC3) [%] | IC50 (KAT2B) [µM] | IC50 KAT2B (25 nM) (KAT2B) | inhibition at 200 µM (KAT6B) [%] | IC50 (KAT5; control compound, read-out: IC50 KAT5 (25 nM)) [µM] | IC50 (KAT6A; read-out: IC50 KAT6A (10 nM), control compound) [µM] | IC50 (KAT6B; read-out: IC50 KAT6B (10 nM), control compound) [µM] | Compound |
| --- | --- | --- | --- | --- | --- | --- | --- | --- | --- | --- | --- | --- | --- |
| 0.02 | 0.8 | 12.1 ± 0.6 | 11.3 ± 0.3 | 0 | 0.5 | 1.1 | > 200 | no inhibition at 200 μM | 4.8 ± 1.6 |  |  |  | CC1=NN(c2ccc(C(=O)O)cc2)C(=O)/C1=C\c1ccc[nH]1 [Compound 19, (Z)-4-(4-((1H-Pyrrol-2-yl)methylene)-3-methyl-5-oxo-4,5-dihydro-1H-pyrazol-1-yl)benzoic Acid] |
| 77.6 | 89.1 | > 200 |  |  | 54.5 | 86.2 | > 200 |  |  | 18.3 | 15 | 5.6 | CC1=NN(c2ccc(C(=O)O)cc2)C(=O)/C1=C\c1ccc(-c2cc(C)c(C)cc2[N+](=O)[O-])o1 [VII (C646), reference compound] |
| 0.04 | 0.6 | 8.1 ± 0.5 | 18.5 ± 1.3 | 20.9 ± 0.4 | 0.02 | 0.6 | > 200 |  | 19.6 ± 1 |  |  |  | O=C(O)c1ccc(N2N=C(c3ccccc3)/C(=C/c3ccc[nH]3)C2=O)cc1 [Compound 34, (Z)-4-(4-((1H-Pyrrol-2-yl)methylene)-5-oxo-3-phenyl-4,5-dihydro-1H-pyrazol-1-yl)benzoic Acid] |

Reference: publication PMC10226132, “First-in-Class Selective Inhibitors of the Lysine Acetyltransferase KAT8” (Journal of Medicinal Chemistry, 2023)
